Laboratory results published in PubChem BioAssay AID1963438 (Molecular Pharmacology Branch, DTP, NCI, 2024).
Several values for one entry are separate records, joined by “and”; a condition that tells them apart may be missing. Equal entries are not always repeated. One block for each molecule: values may come before it.

System: NCI-H510 multicellular tumor spheroid growth, % test/control
Test: Anticancer human tumor NCI-H510 cell line growth inhibition [Asc];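 further: spheroids exposed to agents for 7 days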;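 on viability, T/C: 100% = DMSO vehicle control wells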
Details: for viability, T/C: stronger effect = lower value
In short: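 Complex solid-tumor spheroids incorporating human endothelial and mesenchymal stem cells received single agents or combinations over half-log dilution ranges anchored to clinical Cmax.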

[1] = curve of first compound, second compound 0.01 µM
[2] = curve of first compound, second compound 0.0316 µM
[3] = curve of first compound, second compound 0.1 µM
[4] = curve of first compound, second compound 0.316 µM
[5] = curve of first compound, second compound 1 µM
[6] = second compound 0.01 µM, first compound 0.0316 µM
[7] = second compound 0.01 µM, first compound 0.1 µM
[8] = second compound 0.0316 µM, first compound 0.0316 µM
[9] = second compound 0.0316 µM, first compound 0.1 µM
[10] = second compound 0.1 µM, first compound 0.0316 µM
[11] = second compound 0.1 µM, first compound 0.1 µM
[12] = second compound 0.316 µM, first compound 0.0316 µM
[13] = second compound 0.316 µM, first compound 0.1 µM
[14] = second compound 1 µM, first compound 0.0316 µM
[15] = second compound 1 µM, first compound 0.1 µM
[16] = curve of first compound, second compound 0.03 µM
[17] = curve of first compound, second compound 0.0949 µM
[18] = curve of first compound, second compound 0.3 µM
[19] = curve of first compound, second compound 0.949 µM
[20] = curve of first compound, second compound 3 µM
[21] = second compound 0.03 µM, first compound 0.00316 µM
[22] = second compound 0.03 µM, first compound 0.01 µM
[23] = second compound 0.03 µM, first compound 0.0316 µM
[24] = second compound 0.03 µM, first compound 0.1 µM
[25] = second compound 0.03 µM, first compound 0.316 µM
[26] = second compound 0.03 µM, first compound 1 µM
[27] = second compound 0.0949 µM, first compound 0.00316 µM
[28] = second compound 0.0949 µM, first compound 0.01 µM
[29] = second compound 0.0949 µM, first compound 0.0316 µM
[30] = second compound 0.0949 µM, first compound 0.1 µM
[31] = second compound 0.0949 µM, first compound 0.316 µM
[32] = second compound 0.0949 µM, first compound 1 µM
[33] = second compound 0.3 µM, first compound 0.00316 µM
[34] = second compound 0.3 µM, first compound 0.01 µM
[35] = second compound 0.3 µM, first compound 0.0316 µM
[36] = second compound 0.3 µM, first compound 0.1 µM
[37] = second compound 0.3 µM, first compound 0.316 µM
[38] = second compound 0.3 µM, first compound 1 µM
[39] = second compound 0.949 µM, first compound 0.00316 µM
[40] = second compound 0.949 µM, first compound 0.01 µM
[41] = second compound 0.949 µM, first compound 0.0316 µM
[42] = second compound 0.949 µM, first compound 0.1 µM
[43] = second compound 0.949 µM, first compound 0.316 µM
[44] = second compound 0.949 µM, first compound 1 µM
[45] = second compound 3 µM, first compound 0.00316 µM
[46] = second compound 3 µM, first compound 0.01 µM
[47] = second compound 3 µM, first compound 0.0316 µM
[48] = second compound 3 µM, first compound 0.1 µM
[49] = second compound 3 µM, first compound 0.316 µM
[50] = second compound 3 µM, first compound 1 µM

IC50 [1]: 9490 nM
IC50 [2]: 8070 nM
IC50 [3]: 8900 nM
IC50 [4]: 9800 nM
IC50 [5]: > 10000 nM
Structure (SMILES): O=C(c1cc(Cc2n[nH]c(=O)c3ccccc23)ccc1F)N1CCN(C(=O)C2CC2)CC1 + CNC(C)C(=O)NC1CN(S(=O)(=O)c2cccc(S(=O)(=O)N3CCC4CCC(C(=O)NC(c5ccccc5)c5ccccc5)N4C(=O)C(NC(=O)C(C)NC)C3)c2)CCC2CCC(C(=O)NC(c3ccccc3)c3ccccc3)N2C1=O
viability, T/C [6]: 103%
viability, T/C [7]: 98.5%
viability, T/C (second compound 0.01 µM, first compound 0.316 µM): 110%
viability, T/C (second compound 0.01 µM, first compound 1 µM): 91.7%
viability, T/C (second compound 0.01 µM, first compound 3.16 µM): 89.4%
viability, T/C (second compound 0.01 µM, first compound 10 µM): 47.9%
viability, T/C [8]: 99.8%
viability, T/C [9]: 101%
viability, T/C (second compound 0.0316 µM, first compound 0.316 µM): 96.2%
viability, T/C (second compound 0.0316 µM, first compound 1 µM): 109%
viability, T/C (second compound 0.0316 µM, first compound 3.16 µM): 95%
viability, T/C (second compound 0.0316 µM, first compound 10 µM): 39.7%
viability, T/C [10]: 90.3%
viability, T/C [11]: 89.2%
viability, T/C (second compound 0.1 µM, first compound 0.316 µM): 83.2%
viability, T/C (second compound 0.1 µM, first compound 1 µM): 114%
viability, T/C (second compound 0.1 µM, first compound 3.16 µM): 91.8%
viability, T/C (second compound 0.1 µM, first compound 10 µM): 45.3%
viability, T/C [12]: 97.8%
viability, T/C [13]: 107%
viability, T/C (second compound 0.316 µM, first compound 0.316 µM): 117%
viability, T/C (second compound 0.316 µM, first compound 1 µM): 87.5%
viability, T/C (second compound 0.316 µM, first compound 3.16 µM): 89.1%
viability, T/C (second compound 0.316 µM, first compound 10 µM): 48.9%
viability, T/C [14]: 112%
viability, T/C [15]: 110%
viability, T/C (second compound 1 µM, first compound 0.316 µM): 104%
viability, T/C (second compound 1 µM, first compound 1 µM): 101%
viability, T/C (second compound 1 µM, first compound 3.16 µM): 92.1%
viability, T/C (second compound 1 µM, first compound 10 µM): 58%

IC50 [16]: > 1000 nM
IC50 [17]: > 1000 nM
IC50 [18]: > 1000 nM
IC50 [19]: > 1000 nM
IC50 [20]: > 1000 nM
Structure (SMILES): CCN1CCN(Cc2ccc(Nc3ncc(F)c(-c4cc(F)c5nc(C)n(C(C)C)c5c4)n3)nc2)CC1 + CCN1C(C(=O)NC23CCC(C(=O)O)(CC2)CC3)C(c2cccc(Cl)c2F)C2(C(=O)Nc3cc(Cl)ccc32)C12CCCCC2
viability, T/C [21]: 100%
viability, T/C [22]: 88%
viability, T/C [23]: 99.1%
viability, T/C [24]: 129%
viability, T/C [25]: 123%
viability, T/C [26]: 75.7%
viability, T/C [27]: 97.4%
viability, T/C [28]: 116%
viability, T/C [29]: 121%
viability, T/C [30]: 110%
viability, T/C [31]: 105%
viability, T/C [32]: 87.5%
viability, T/C [33]: 119%
viability, T/C [34]: 114%
viability, T/C [35]: 74.9%
viability, T/C [36]: 86.1%
viability, T/C [37]: 106%
viability, T/C [38]: 88.7%
viability, T/C [39]: 105%
viability, T/C [40]: 107%
viability, T/C [41]: 123%
viability, T/C [42]: 74.5%
viability, T/C [43]: 107%
viability, T/C [44]: 106%
viability, T/C [45]: 98.2%
viability, T/C [46]: 127%
viability, T/C [47]: 128%
viability, T/C [48]: 76.1%
viability, T/C [49]: 113%
viability, T/C [50]: 83.1%

IC50 (compound alone, run of 10/11/2022): > 10000 nM
Structure (SMILES): Cc1c(S(C)(=O)=O)c(-c2cc(F)cc(N3CCN(c4ccc(NS(=O)(=O)c5ccc(NC(CCN6CCC(C(=O)OCCCP(=O)(O)O)CC6)CSc6ccccc6)c(S(=O)(=O)C(F)(F)F)c5)cc4)CC3)c2)c(-c2ccc(Cl)cc2)n1C(C)C (centres undefined)
viability, T/C (compound 1 µM): 95.2% [middle of 14 runs]

IC50 [1]: > 100 nM
IC50 [2]: > 100 nM
IC50 [3]: > 100 nM
IC50 [4]: > 100 nM
IC50 [5]: > 100 nM
Structure (SMILES): NC1CCC(NC2CC2c2ccccc2)CC1 (centres undefined) + CNC(C)C(=O)NC1CN(S(=O)(=O)c2cccc(S(=O)(=O)N3CCC4CCC(C(=O)NC(c5ccccc5)c5ccccc5)N4C(=O)C(NC(=O)C(C)NC)C3)c2)CCC2CCC(C(=O)NC(c3ccccc3)c3ccccc3)N2C1=O
viability, T/C (second compound 0.01 µM, first compound 0.000316 µM): 85.6%
viability, T/C (second compound 0.01 µM, first compound 0.001 µM): 105%
viability, T/C (second compound 0.01 µM, first compound 0.00316 µM): 97.4%
viability, T/C (second compound 0.01 µM, first compound 0.01 µM): 90%
viability, T/C [6]: 105%
viability, T/C [7]: 94.3%
viability, T/C (second compound 0.0316 µM, first compound 0.000316 µM): 98.7%
viability, T/C (second compound 0.0316 µM, first compound 0.001 µM): 96.7%
viability, T/C (second compound 0.0316 µM, first compound 0.00316 µM): 92.3%
viability, T/C (second compound 0.0316 µM, first compound 0.01 µM): 91.6%
viability, T/C [8]: 96.9%
viability, T/C [9]: 94.9%
viability, T/C (second compound 0.1 µM, first compound 0.000316 µM): 107%
viability, T/C (second compound 0.1 µM, first compound 0.001 µM): 97.4%
viability, T/C (second compound 0.1 µM, first compound 0.00316 µM): 91.2%
viability, T/C (second compound 0.1 µM, first compound 0.01 µM): 89.8%
viability, T/C [10]: 96.9%
viability, T/C [11]: 97.7%
viability, T/C (second compound 0.316 µM, first compound 0.000316 µM): 99%
viability, T/C (second compound 0.316 µM, first compound 0.001 µM): 106%
viability, T/C (second compound 0.316 µM, first compound 0.00316 µM): 91%
viability, T/C (second compound 0.316 µM, first compound 0.01 µM): 99.9%
viability, T/C [12]: 102%
viability, T/C [13]: 97.8%
viability, T/C (second compound 1 µM, first compound 0.000316 µM): 114%
viability, T/C (second compound 1 µM, first compound 0.001 µM): 106%
viability, T/C (second compound 1 µM, first compound 0.00316 µM): 97.9%
viability, T/C (second compound 1 µM, first compound 0.01 µM): 98.1%
viability, T/C [14]: 94.3%
viability, T/C [15]: 101%

IC50 (curve of compound): > 10000 nM
Structure (SMILES): C#Cc1c(F)ccc2cc(O)cc(-c3ncc4c(N5CC6CCC(C5)N6)nc(OCC56CCCN5CC(F)C6)nc4c3F)c12 (centres undefined)
viability, T/C (compound 0.0316 µM): 111% and 93.4% and 94.4%
viability, T/C (compound 0.1 µM): 104% and 103% and 112%
viability, T/C (compound 0.316 µM): 99.3% and 99.1% and 92.8%
viability, T/C (compound 1 µM): 94.8% and 105% and 84.2%
viability, T/C (compound 3.16 µM): 106% and 112% and 123%
viability, T/C (compound 10 µM): 99.8% and 88.4% and 92.8%

IC50 [16]: > 1000 nM
IC50 [17]: > 1000 nM
IC50 [18]: > 1000 nM
IC50 [19]: > 1000 nM
IC50 [20]: > 1000 nM
Structure (SMILES): CNC(C)C(=O)NC1CN(S(=O)(=O)c2cccc(S(=O)(=O)N3CCC4CCC(C(=O)NC(c5ccccc5)c5ccccc5)N4C(=O)C(NC(=O)C(C)NC)C3)c2)CCC2CCC(C(=O)NC(c3ccccc3)c3ccccc3)N2C1=O (centres undefined) + CCN1C(C(=O)NC23CCC(C(=O)O)(CC2)CC3)C(c2cccc(Cl)c2F)C2(C(=O)Nc3cc(Cl)ccc32)C12CCCCC2
viability, T/C [21]: 96.8%
viability, T/C [22]: 81.6%
viability, T/C [23]: 96.8%
viability, T/C [24]: 101%
viability, T/C [25]: 95.6%
viability, T/C [26]: 97.8%
viability, T/C [27]: 98.5%
viability, T/C [28]: 104%
viability, T/C [29]: 87.8%
viability, T/C [30]: 77.2%
viability, T/C [31]: 105%
viability, T/C [32]: 83.5%
viability, T/C [33]: 81.6%
viability, T/C [34]: 106%
viability, T/C [35]: 106%
viability, T/C [36]: 93.4%
viability, T/C [37]: 89.8%
viability, T/C [38]: 83.7%
viability, T/C [39]: 110%
viability, T/C [40]: 99.8%
viability, T/C [41]: 118%
viability, T/C [42]: 96.6%
viability, T/C [43]: 102%
viability, T/C [44]: 81.7%
viability, T/C [45]: 86.5%
viability, T/C [46]: 92%
viability, T/C [47]: 117%
viability, T/C [48]: 84.1%
viability, T/C [49]: 87.3%
viability, T/C [50]: 110%
